Assay results published in US20090099192A1, “Substituted 1H-pyrrole-2,5-diones” (Bayer CropScience AG, priority 2004, published 2009).

How the values were obtained:
[1] = tested on: larvae of the mustard beetle (Phaedon cochleariae); assay: Phaedon larvae test (cabbage leaves dipped); format: in vivo; details: for Kill rate in % after 7 d: leaf dip, Brassica oleracea
Experimental: [table] To produce a suitable preparation of active compound, 1 part by weight of active compound is mixed with the stated amount of solvent and the stated amount of emulsifier, and the concentrate is diluted with water to the desired concentration. Cabbage leaves (Brassica oleracea) are treated by being dipped into the active compound preparation of the desired concentration and populated with larvae of the mustard beetle (Phaedon cochleariae) while the leaves are still moist. After the desired period of time, the kill in % is determined. 100% means that all beetle larvae have been killed; 0% means that none of the beetle larvae have been killed.

[2] = tested on: black bean aphid (Aphis fabae); assay: Aphis fabae test; format: in vivo
Experimental: [table] To produce a suitable preparation of active compound, 1 part by weight of active compound is mixed with the stated amounts of solvent and emulsifier, and the concentrate is diluted with emulsifier-containing water to the desired concentration. Shoots of young broadbeans (Vicia faba) which are heavily infested by the black bean aphid (Aphis fabae) are treated by being dipped into the active compound preparation of the desired concentration. After the desired period of time, the kill in % is determined. 100% means that all aphids have been killed; 0% means that none of the aphids have been killed.

[3] = tested on: green peach aphid (Myzus persicae); assay: Myzus test (spray treatment, Brassica pekinensis); format: in vivo; details: for Kill rate in % after 5 d: 500 g/ha, spray, Brassica pekinensis disks
Experimental: [table] To produce a suitable preparation of active compound, 1 part by weight of active compound is mixed with the stated amounts of solvents and emulsifier, and the concentrate is diluted with emulsifier-containing water to the desired concentration. Disks of Chinese cabbage (Brassica pekinensis) which are infested by all stages of the green peach aphid (Myzus persicae) are sprayed with an active compound preparation of the desired concentration. After the desired period of time, the effect in % is determined. 100% means that all aphids have been killed; 0% means that none of the aphids have been killed.

[4] = logP determination by HPLC on reversed-phase column (C 18), EEC Directive 79/831 Annex V.A8; format: physicochemical; details: reversed-phase C 18, 43° C., acid range (0.1% aqueous phosphoric acid, acetonitrile), marked a)
Outline: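 Reversed-phase C18 HPLC at 43° C, per EEC Directive 79/831 Annex V.A8, acid range: 0.1% aqueous phosphoric acid with linear 10–90% acetonitrile gradient. logP derived from retention time by linear interpolation between calibrating unbranched alkan-2-ones (C3–C16) of known logP.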

[5] = tested on: common spidermite (Tetranychus urticae); assay: Tetranychus test; format: in vivo; details: 500 ppm, spray, Phaseolus vulgaris disks
Experimental: (§1) To produce a suitable preparation of active compound, 1 part by weight of active compound is mixed with the stated amounts of solvent and emulsifier, and the concentrate is diluted with emulsifier-containing water to the desired concentration.
Disks of beans (Phaseolus vulgaris), which are infested by all stages of the common spidermite (Tetranychus urticae) are sprayed with an active compound preparation of the desired concentration.
After the desired period of time, the effect in % is determined. 100% means that all spidermites have been killed; 0% means that none of the spidermites have been killed.

[6] = tested on: caterpillars of the army worm (Spodoptera exigua); assay: Spodoptera exigua test; format: in vivo
Experimental: (§2) [table] To produce a suitable preparation of active compound, 1 part by weight of active compound is mixed with the stated amounts of solvent and emulsifier, and the concentrate is diluted with emulsifier-containing water to the desired concentration. Cabbage leaves (Brassica oleracea) are treated by being dipped into the active compound preparation of the desired concentration and populated with caterpillars of the army worm (Spodoptera exigua) while the leaves are still moist. After the desired period of time, the kill in % is determined. 100% means that all caterpillars have been killed; 0% means that none of the caterpillars have been killed.

[7] = tested on: caterpillars of the diamond back moth (Plutella xylostella); assay: Plutella test; format: in vivo
Experimental: as §2, with “diamond back moth (Plutella xylostella)” for “army worm (Spodoptera exigua)”

[8] = tested on: caterpillars of the army worm (Spodoptera frugiperda); assay: Spodoptera frugiperda test (cabbage leaves dipped); format: in vivo
Experimental: [table] To produce a suitable preparation of active compound, 1 part by weight of active compound is mixed with the stated amount of solvent and the stated amount of emulsifier, and the concentrate is diluted with emulsifier-containing water to the desired concentration. Cabbage leaves (Brassica oleracea) are treated by being dipped into the active compound preparation of the desired concentration and populated with caterpillars of the army worm (Spodoptera frugiperda) while the leaves are still moist. After the desired period of time, the kill in % is determined. 100% means that all caterpillars have been killed; 0% means that none of the caterpillars have been killed.

[9] = tested on: caterpillars of the diamond back moth (Plutella xylostella, resistant strain); assay: Plutella test; resistant strain; format: in vivo
Experimental: as §1
Cabbage leaves (Brassica oleracea) are treated by being dipped into the active compound preparation of the desired concentration and populated with caterpillars of the diamond back moth (Plutella xylostella, resistant strain) while the leaves are still moist.
After the desired period of time, the kill in % is determined. 100% means that all caterpillars have been killed; 0% means that none of the caterpillars have been killed.

[10] = tested on: larvae of the mustard beetle (Phaedon cochleariae); assay: Phaedon test (spray treatment); format: in vivo
Outline: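 Chinese cabbage leaf disks sprayed with compound diluted in emulsifier-containing water, dried, then infested with mustard beetle larvae. After a set period, mortality scored in %: 100% all larvae dead, 0% none dead.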

| Structure (SMILES) | activity in the Phaedon larvae test [1] | Kill rate in % after 7 d ([1]; 1000 ppm) [%] | activity in the Aphis fabae test [2] | Kill rate in % after 6 d ([2]; 1000 ppm, Vicia faba shoots dipped) [%] | activity in the Myzus test (spray, Brassica pekinensis) [3] | Kill rate in % after 5 d [3] [%] | Kill rate in % after 7 d ([1]; 500 ppm) [%] | logP [4] | Kill rate in % after 5 d [5] [%] | activity in the Spodoptera exigua test [6] | Kill rate in % after 7 d ([6]; 500 ppm, leaf dip) [%] | activity in the Plutella test [7] | Kill rate in % after 7 d ([7]; 500 ppm, leaf dip) [%] | activity in the Spodoptera frugiperda test (leaf dip) [8] | Kill rate in % after 7 d ([8]; 500 ppm, leaf dip, Brassica oleracea) [%] | activity in the Plutella test, resistant strain [9] | Kill rate in % after 7 d ([9]; 500 ppm, leaf dip, resistant strain) [%] | activity in the Phaedon test (spray treatment) [10] | Kill rate in % after 7 d ([10]; 100 g/ha, spray, Brassica pekinensis disks) [%] | melting point [°C] |
| --- | --- | --- | --- | --- | --- | --- | --- | --- | --- | --- | --- | --- | --- | --- | --- | --- | --- | --- | --- | --- |
| C=CCN1C(=O)C(O)=C(c2c(C)cc(C)cc2C)C1=O [Example 4] | good activity | 100 | good activity | 99 | good activity | 70 | – | – | – | – | – | – | – | – | – | – | – | – | – | – |
| O=C1C(O)=C(c2ccccc2Cl)C(=O)N1C1CCCC(C(F)(F)F)C1 (centres unmarked) [Example 214] | good activity | – | – | – | – | – | 100 | logP = 3.53^a) | 90 | good activity | 100 | good activity | 100 | good activity | 100 | good activity | 100 | good activity | 100 | – |
| CCN1C(=O)C(OC(=O)C(C)(C)C)=C(c2c(C)cc(C)cc2C)C1=O [Example 2, 1-ethyl-3-pivaloyloxy-4-(2,4,6-trimethylphenyl)-1H-pyrrole-2,5-dione] | – | – | – | – | good activity | 90 | – | – | – | – | – | – | – | – | – | – | – | – | – | 91 |
